Assay results as given in US20240336629A1, “Tricyclic Derivatives Useful As PARP7 Inhibitors” (JACOBIO PHARMACEUTICALS CO., LTD., priority 2021, published 2024).

Experiments:
PARP7 enzyme = PARP7 enzyme (Homo sapiens (Human), UniProt Q7Z3E1); assay: PARP7 enzymatic experiment (HTRF assay); type: biochemical; settings: 4PL fit
[1] = test system: lung cancer cell line H1373 (high expression of PARP7); assay: Lung cancer cell proliferation inhibition experiment (CTG method); type: cell-based; settings: H1373 cells, 144 hrs incubation, Cell Titer Glo

PARP7 enzyme, sequence (Q7Z3E1 456-657): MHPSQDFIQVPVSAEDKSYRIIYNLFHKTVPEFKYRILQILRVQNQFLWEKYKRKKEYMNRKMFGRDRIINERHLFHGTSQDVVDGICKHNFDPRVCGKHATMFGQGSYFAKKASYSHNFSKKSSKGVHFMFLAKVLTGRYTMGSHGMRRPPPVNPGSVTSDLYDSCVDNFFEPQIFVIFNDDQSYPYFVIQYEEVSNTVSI

## C[C@@H](COCCC(=O)N1CCN2c3ncc(C(F)(F)F)cc3C(C)(O)CC2C1)Nc1cn[nH]c(=O)c1C(F)(F)F (some centres unmarked) [Compound 78]
PARP7 enzyme
  IC50: 0.00283 µM

## CC(=O)c1c(N[C@@H](C)COCCC(=O)N2CCN3c4ncc(C(F)(F)F)cc4OCC[C@@H]3C2)cn[nH]c1=O (single isomer, unassigned) [Compound 70B]
[1]
  IC50: 0.342 µM
PARP7 enzyme
  IC50: 0.00754 µM

## COc1ccc(Cn2ncc(N3CC[C@H]3COCCC(=O)N3CCN4c5ncc(C(F)(F)F)cc5N(C)C(=O)[C@@H]4C3)c(C(F)(F)F)c2=O)cc1 (single isomer, unassigned) [Compound 87A]
[1]
  IC50: 0.0058 µM

## C[C@@H](COCCC(=O)N1CCN2c3ncc(C(F)(F)F)cc3S(=O)(=O)CC[C@@H]2C1)Nc1cn[nH]c(=O)c1C(F)(F)F [Compound 75A]
PARP7 enzyme
  IC50: 0.00364 µM

## O=C(CCOC[C@@H]1CCN1c1cn[nH]c(=O)c1C(F)(F)F)N1CCN2c3ncc(C(F)(F)F)cc3OC[C@H]2C1 [Compound 89B]
[1]; Homo sapiens, NCI-H1373, 144 h
  IC50: 0.00692 µM
PARP7 enzyme
  IC50: 0.000658 µM

## CCN1C(=O)[C@@H]2CN(C(=O)CCOC[C@H](C)Nc3cn[nH]c(=O)c3C(F)(F)F)CCN2c2ncc(Cl)cc21 [Compound 22A]
[1]; Homo sapiens, NCI-H1373, 144 h
  IC50: 0.139 µM
PARP7 enzyme
  IC50: 0.000846 µM

## C[C@@H](COCCC(=O)N1CCn2c(cc3cc(C(F)(F)F)cnc32)C1)Nc1cn[nH]c(=O)c1C(F)(F)F [Compound 41]
[1]; Homo sapiens, NCI-H1373, 144 h
  IC50: 0.276 µM

## CC(=O)c1c(N[C@@H](C)COCCC(=O)N2CCN3c4ncc(C(F)(F)F)cc4N(C)C(=O)[C@@H]3C2)cn[nH]c1=O [Compound 13A]
[1]; Homo sapiens, NCI-H1373, 144 h
  IC50: 0.0357 µM
PARP7 enzyme
  IC50: 0.00136 µM

## COc1ccc(Cn2ncc(N3CC(C)(C)[C@H]3COCCC(=O)N3CCN4c5ncc(C(F)(F)F)cc5N(C)C(=O)[C@@H]4C3)c(C(F)(F)F)c2=O)cc1 (single isomer, unassigned) [Compound 95A]
[1]
  IC50: 0.0399 µM
PARP7 enzyme
  IC50: 0.00357 µM

## C[C@@H](COCCC(=O)N1CCN2c3ncc(Cl)cc3N(C)C(=O)[C@H]2C1)Nc1cn[nH]c(=O)c1C(F)(F)F (single isomer, unassigned) [Compound 20B]
[1]; Homo sapiens, NCI-H1373, 144 h
  IC50: 0.0574 µM
PARP7 enzyme
  IC50: 0.00185 µM

## C[C@@H](COCCC(=O)N1CCN2c3nc(F)c(Cl)cc3N(C)C(=O)[C@H]2C1)Nc1cn[nH]c(=O)c1C(F)(F)F [Compound 14B]
PARP7 enzyme
  IC50: 0.0399 µM

## C[C@@H](COCCC(=O)N1CCN2c3ncc(C(F)(F)F)cc3C(=O)C[C@H]2C1)Nc1cn[nH]c(=O)c1C(F)(F)F (single isomer, unassigned) [Compound 76B]
[1]
  IC50: 0.404 µM
PARP7 enzyme
  IC50: 0.00504 µM

## CC(=O)c1c(N[C@@H](C)COCCC(=O)N2CCN3c4ncc(C(F)(F)F)cc4OCC3C2)cn[nH]c1=O (some centres unmarked) [Compound 69]
[1]
  IC50: 0.483 µM
PARP7 enzyme
  IC50: 0.00392 µM

## C[C@@H](COCCC(=O)N1CCN2c3ncc(C(F)(F)F)cc3C(O)CC2C1)Nc1cn[nH]c(=O)c1C(F)(F)F (some centres unmarked) [Compound 80]
[1]
  IC50: 0.151 µM
PARP7 enzyme
  IC50: 0.000946 µM

## C[C@H]1C[C@H]2CN(C(=O)CCOC[C@@H]3CCN3c3cn[nH]c(=O)c3C(F)(F)F)CCN2c2ncc(C(F)(F)F)cc21 (single isomer, unassigned) [Compound 94D]
[1]
  IC50: 0.0158 µM
PARP7 enzyme
  IC50: 0.00355 µM

## C[C@@H](COCCC(=O)N1CCN2c3ncc(C(F)(F)F)cc3SCC[C@H]2C1)Nc1cn[nH]c(=O)c1C(F)(F)F (single isomer, unassigned) [Compound 71B]
[1]
  IC50: 0.912 µM
PARP7 enzyme
  IC50: 0.0149 µM

## O=C(CCOC[C@@H]1CCN1c1cn[nH]c(=O)c1C(F)(F)F)N1CCN2c3ncc(C(F)(F)F)cc3OC[C@@H]2C1 [Compound 89A]
[1]; Homo sapiens, NCI-H1373, 144 h
  IC50: 0.0106 µM
PARP7 enzyme
  IC50: 0.000696 µM

## C[C@@H](COCCC(=O)N1CCN2c3ncc(C(F)(F)F)cc3[C@@](C)(O)[C@@H]2C1)Nc1cn[nH]c(=O)c1C(F)(F)F [Compound 79A]
[1]; Homo sapiens, NCI-H1373, 144 h
  IC50: 0.572 µM
PARP7 enzyme
  IC50: 0.00725 µM

## CN1C(=O)[C@H]2CN(C(=O)CCOC[C@@H]3CCN3c3cn[nH]c(=O)c3C(F)(F)F)CCN2c2ncc(Cl)cc21 [Compound 88B]
[1]; Homo sapiens, NCI-H1373, 144 h
  IC50: 0.00294 µM
PARP7 enzyme
  IC50: 0.000446 µM

## C[C@@H](COCCC(=O)N1CCN2c3ncc(C(F)(F)F)cc3[C@](C)(O)[C@@H]2C1)Nc1cn[nH]c(=O)c1C(F)(F)F [Compound 79B]
[1]; Homo sapiens, NCI-H1373, 144 h
  IC50: 0.341 µM
PARP7 enzyme
  IC50: 0.00467 µM

## C[C@@H](COCCC(=O)N1CCN2c3ncc(C(F)(F)F)cc3N(C)C(=O)[C@@H]2C1)Nc1cn[nH]c(=O)c1Br [Compound 32A]
PARP7 enzyme
  IC50: 0.00825 µM

## C[C@@H](COCCC(=O)N1CCN2c3ncc(C(F)(F)F)cc3OCCC2C1)Nc1cn[nH]c(=O)c1C(F)(F)F (some centres unmarked) [Compound 54]
[1]; Homo sapiens, NCI-H1373, 144 h
  IC50: 0.0636 µM

## C[C@H](COCCC(=O)N1CCN2c3ncc(C(F)(F)F)cc3N(C)C(=O)[C@H]2C1)Oc1cn[nH]c(=O)c1C(F)(F)F [Compound 81D]
[1]
  IC50: 0.0123 µM

## C[C@@H](COCCC(=O)N1CCN2c3ncc(C(F)(F)F)cc3[S@+]([O-])CC[C@@H]2C1)Nc1cn[nH]c(=O)c1C(F)(F)F [Compound 74A]
PARP7 enzyme
  IC50: 0.00216 µM

## C[C@@H](COC[C@H](O)C(=O)N1CCN2c3ncc(Cl)cc3OCCC2C1)Nc1cn[nH]c(=O)c1C(F)(F)F (some centres unmarked) [Compound 64B]
PARP7 enzyme
  IC50: 0.00946 µM

## C[C@@H](COCCC(=O)N1CCN2c3ncc(Br)cc3SCC[C@@H]2C1)Nc1cn[nH]c(=O)c1C(F)(F)F (single isomer, unassigned) [Compound 72B]
PARP7 enzyme
  IC50: 0.00724 µM

## C[C@@H](COCCC(=O)N1CCN2c3ncc(C(F)(F)F)cc3OC[C@@H]2C1)Nc1cn[nH]c(=O)c1C(F)(F)F [Compound 53B]
[1]; Homo sapiens, NCI-H1373, 144 h
  IC50: 0.214 µM

## C[C@@H](COCCC(=O)N1CCN2c3ncc(C(F)(F)F)cc3OCC2C1)Nc1cn[nH]c(=O)c1C(F)(F)F (some centres unmarked) [Compound 53]
[1]; Homo sapiens, NCI-H1373, 144 h
  IC50: 0.0797 µM

## C[C@@H](COCCC(=O)N1CCN2c3ncc(C(F)(F)F)cc3N(C)C(=O)[C@@H]2C1)Nc1cn[nH]c(=O)c1Cl [Compound 31A]
PARP7 enzyme
  IC50: 0.0258 µM

## C[C@@H](COCCC(=O)N1CCc2c(c(=O)n(C)c3cc(C(F)(F)F)cnc23)C1)Nc1cn[nH]c(=O)c1C(F)(F)F [Compound 12]
PARP7 enzyme
  IC50: 0.00292 µM

## CC(C)N1C(=O)[C@H]2CN(C(=O)CCOC[C@H](C)Nc3cn[nH]c(=O)c3C(F)(F)F)CCN2c2ncc(C(F)(F)F)cc21 (single isomer, unassigned) [Compound 24B]
PARP7 enzyme
  IC50: 0.00317 µM

## C[C@@H](COCCC(=O)N1CCN2c3ncc(C(F)(F)F)cc3N(C)CC2C1)Nc1cn[nH]c(=O)c1C(F)(F)F (some centres unmarked) [Compound 39]
[1]; Homo sapiens, NCI-H1373, 144 h
  IC50: 0.108 µM

## C[C@@H](COCCC(=O)N1CCN2c3ncc(C(F)(F)F)cc3[S@+]([O-])CC[C@H]2C1)Nc1cn[nH]c(=O)c1C(F)(F)F [Compound 74B]
PARP7 enzyme
  IC50: 0.00223 µM

## C[C@@H](COCCC(=O)N1CCN2c3ncc(Cl)cc3SCC[C@H]2C1)Nc1cn[nH]c(=O)c1C(F)(F)F (single isomer, unassigned) [Compound 73B]
PARP7 enzyme
  IC50: 0.0179 µM

## C[C@@H](COCCC(=O)N1CCN2c3ncc(C(F)(F)F)cc3N(CC(F)(F)F)C(=O)C2C1)Nc1cn[nH]c(=O)c1C(F)(F)F (some centres unmarked) [Compound 8]
[1]; Homo sapiens, NCI-H1373, 144 h
  IC50: 0.203 µM

## C[C@@H](COCCC(=O)N1CCN2c3ncc(C(F)(F)F)cc3N(C)C(=O)[C@H]2C1)Nc1cn[nH]c(=O)c1Br [Compound 32B]
PARP7 enzyme
  IC50: 0.02 µM

## C[C@@H](COCCC(=O)N1CCn2c(nc3cc(C(F)(F)F)cnc32)C1)Oc1cn[nH]c(=O)c1C(F)(F)F [Compound 49A]
[1]; Homo sapiens, NCI-H1373, 144 h
  IC50: 0.185 µM

## C[C@@H](COCCC(=O)N1CCN2c3ncc(C(F)(F)F)cc3NC(=O)CC2C1)Nc1cn[nH]c(=O)c1C(F)(F)F (some centres unmarked) [Compound 1A]
PARP7 enzyme
  IC50: 0.0343 µM

## CC(COCCC(=O)N1CCN2c3ncc(Cl)cc3OCCC2C1)Oc1cn[nH]c(=O)c1C(F)(F)F (centres unmarked) [Compound 84]
PARP7 enzyme
  IC50: 0.00401 µM

## C[C@@H](COCCC(=O)N1CCN2c3ncc(C(F)(F)F)cc3[S@@+]([O-])CC[C@H]2C1)Nc1cn[nH]c(=O)c1C(F)(F)F [Compound 74D]
PARP7 enzyme
  IC50: 0.0722 µM

## C[C@@H](COCCC(=O)N1CCN2c3ncc(C(F)(F)F)cc3N(C)CCC2C1)Nc1cn[nH]c(=O)c1C(F)(F)F (some centres unmarked) [Compound 40]
[1]; Homo sapiens, NCI-H1373, 144 h
  IC50: 0.26 µM

## C[C@@H](COCCC(=O)N1CCn2c(c(Cl)c3cc(C(F)(F)F)cnc32)C1)Nc1cn[nH]c(=O)c1C(F)(F)F [Compound 42]
[1]; Homo sapiens, NCI-H1373, 144 h
  IC50: 0.138 µM

## C[C@@H](COCCC(=O)N1CCN2c3ncc(C(F)(F)F)cc3[S@@+]([O-])CC[C@@H]2C1)Nc1cn[nH]c(=O)c1C(F)(F)F [Compound 74C]
PARP7 enzyme
  IC50: 0.0554 µM

## C[C@@H](COCCC(=O)N1CCN2c3ncc(C(F)(F)F)cc3N(C)C(=O)[C@H]2C1)Nc1cn[nH]c(=O)c1Cl [Compound 31B]
PARP7 enzyme
  IC50: 0.059 µM

## C[C@@H](COCCC(=O)N1CCN2c3ncc(C(F)(F)F)cc3S(=O)(=O)CC[C@H]2C1)Nc1cn[nH]c(=O)c1C(F)(F)F [Compound 75B]
PARP7 enzyme
  IC50: 0.0135 µM

## C[C@H](COCCC(=O)N1CCN2c3ncc(C(F)(F)F)cc3N(C)C(=O)[C@@H]2C1)Oc1cn[nH]c(=O)c1C(F)(F)F [Compound 81C]
[1]
  IC50: 0.0192 µM

## C[C@@H](COCCC(=O)N1CCN2c3ncc(C(F)(F)F)cc3NCCC2C1)Nc1cn[nH]c(=O)c1C(F)(F)F (some centres unmarked) [Compound 37]
[1]; Homo sapiens, NCI-H1373, 144 h
  IC50: 0.203 µM

## COc1ccc(Cn2ncc(N3CC[C@H]3COCCC(=O)N3CCN4c5ncc(C(F)(F)F)cc5N(C)C(=O)[C@H]4C3)c(C(F)(F)F)c2=O)cc1 (single isomer, unassigned) [Compound 87B]
[1]
  IC50: 0.00535 µM

## Cc1c2n(c3ncc(C(F)(F)F)cc13)CCN(C(=O)CCOC[C@H](C)Nc1cn[nH]c(=O)c1C(F)(F)F)C2 [Compound 43]
[1]; Homo sapiens, NCI-H1373, 144 h
  IC50: 0.105 µM

## C[C@@H](COCCC(=O)N1CCN2c3ncc(C(F)(F)F)cc3OC[C@H]2C1)Nc1cn[nH]c(=O)c1C(F)(F)F [Compound 53A]
[1]; Homo sapiens, NCI-H1373, 144 h
  IC50: 0.296 µM
